Target: T1, His-hSHIP1 enzyme (Homo sapiens, UniProt Q92835)
T1 construct: His
T1 sequence (Q92835 1-1189): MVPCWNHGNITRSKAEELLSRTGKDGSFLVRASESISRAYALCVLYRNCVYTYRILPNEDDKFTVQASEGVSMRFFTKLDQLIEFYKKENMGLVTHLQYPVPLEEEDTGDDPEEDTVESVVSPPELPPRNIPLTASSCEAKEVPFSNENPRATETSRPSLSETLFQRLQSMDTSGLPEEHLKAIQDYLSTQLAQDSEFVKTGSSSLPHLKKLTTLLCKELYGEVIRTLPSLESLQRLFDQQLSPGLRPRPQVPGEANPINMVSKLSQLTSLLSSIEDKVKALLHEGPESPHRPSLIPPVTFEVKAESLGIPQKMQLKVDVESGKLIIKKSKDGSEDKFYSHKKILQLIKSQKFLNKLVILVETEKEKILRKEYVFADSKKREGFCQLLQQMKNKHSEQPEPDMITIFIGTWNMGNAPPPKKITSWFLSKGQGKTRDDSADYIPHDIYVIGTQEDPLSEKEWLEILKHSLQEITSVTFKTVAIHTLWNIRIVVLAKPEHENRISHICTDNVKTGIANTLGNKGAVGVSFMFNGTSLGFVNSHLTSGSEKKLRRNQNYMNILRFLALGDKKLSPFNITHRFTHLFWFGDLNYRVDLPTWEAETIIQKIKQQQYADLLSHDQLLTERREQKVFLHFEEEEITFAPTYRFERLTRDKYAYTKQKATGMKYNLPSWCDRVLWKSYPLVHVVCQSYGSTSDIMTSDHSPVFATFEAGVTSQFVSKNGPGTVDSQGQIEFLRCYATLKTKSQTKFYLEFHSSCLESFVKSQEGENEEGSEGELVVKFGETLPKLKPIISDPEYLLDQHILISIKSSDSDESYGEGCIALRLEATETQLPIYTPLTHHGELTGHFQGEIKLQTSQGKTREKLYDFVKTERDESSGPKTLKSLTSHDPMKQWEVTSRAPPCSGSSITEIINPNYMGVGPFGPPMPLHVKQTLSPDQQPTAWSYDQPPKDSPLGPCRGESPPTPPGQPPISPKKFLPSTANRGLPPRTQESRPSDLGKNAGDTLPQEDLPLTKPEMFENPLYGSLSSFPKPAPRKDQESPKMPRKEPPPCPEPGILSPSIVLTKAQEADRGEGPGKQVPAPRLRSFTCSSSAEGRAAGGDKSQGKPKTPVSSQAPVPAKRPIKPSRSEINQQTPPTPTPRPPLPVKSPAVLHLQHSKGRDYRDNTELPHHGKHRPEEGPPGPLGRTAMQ
Test: His-hSHIP1 activity, approach 1 (phosphate release from IP4, Biomol Green)
Assay type: biochemical
Conditions: activation of His-hSHIP1; IP4 50 μM; test compound 0-300 μM; no asterisk in Table 2
Procedure: Test compounds are dissolved in 95% ethanol to form stock solutions. Before screening, the stock solutions are diluted with Phosphatase Assay Buffer (20 mM Tris-HCL, 10 mM MgCl2 pH 7.5, 0.02% Tween 20) to form working assay solutions that contain 10% ethanol. The assay is carried out on 96-well microtiter plates using a modified procedure of that reported by Ong et al., Blood 110, 1942-1949, 2007 and Yang et al., Org Lett 7, 1073-1076, 2005, both of which references are incorporated herein by reference in their entirety.
Data were generated by one of two variant methods. Test compounds are screened by one of two approaches described as follows. In the first approach, each reaction contains 5 μL of His-hSHIP1 enzyme (5-20 ng), 10 μL of the substrate, 1,3,4,5-inositol tetrakisphosphate (IP4; 50 μM final), 5 μL of Phosphatase Assay Buffer, and 5 µL of test compound at various concentrations in 10% ethanol (0-300 μM final). Control blanks are also prepared by replacing His-hSHIP1 enzyme, IP4, or test compounds with Phosphatase Assay Buffer. After adding the reaction components in a 96-well microtiter plate on ice, the reaction is mixed by briefly shaking the plate vigorously. The reaction is then incubated at 37° C. for 15 min with gentle shaking followed by addition of 100 μL of Biomol Green Reagent (BIOMOL, Pa., USA) to terminate the reaction. The free phosphate released from IP4 by His-hSHIP1 binds to the Biomol Green Reagent, which turns the dye to green color. After incubating the mixture for 20 min at room temperature for color development, the absorbance is read with SpectraMax Plus 96-well plate reader (Molecular Devices, Sunnyvale, Calif., USA) at a wavelength of 650 nm.

| SMILES | Scoring, Approach 1 (% increase relative to background) |
| --- | --- |
| Cc1cc(O)cc(C(=O)[C@H]2[C@H](C)C(=O)C[C@H]3C(C)(C)CCC[C@]23C)c1 [Compound No. 8, (3S,4S,4aS,8aS)-4-[(3-hydroxy-5-methylphenyl)carbonyl]-3,4a,8,8-tetramethyl-decahydronaphthalen-2-one] | + (0 < x < 50) |
| COc1cc(C)cc(C(=O)[C@H]2[C@@H](C)[C@H](O)C[C@H]3C(C)(C)CCC[C@]23C)c1 [Compound No. 6, (2R,3R,4S,4aS,8aS)-4-[(3-methoxy-5-methylphenyl)carbonyl]-3,4a,8,8-tetramethyl-decahydronaphthalen-2-ol] | + (0 < x < 50) |
| COc1ccc(CN[C@@H]2C[C@H]3C(C)(C)CCC[C@]3(C)[C@@H](C(=O)c3cc(OC)cc(OC)c3)[C@@H]2C)cc1 [Compound No. 54, (2R,3S,4S,4aS,8aS)-4-[(3,5-dimethoxyphenyl)carbonyl]-N-[(4-methoxyphenyl)methyl]-3,4a,8,8-tetramethyl-decahydronaphthalen-2-amine] | ++ (50 ≤ x < 65) |
| COc1cc(OC)cc(C(=O)[C@@H]2[C@@]3(C)CCCC(C)(C)[C@@H]3CC[C@@]2(C)O)c1 [Compound No. 50, (1R,2R,4aS,8aS)-1-[(3,5-dimethoxyphenyl)carbonyl]-2,5,5,8a-tetramethyl-decahydronaphthalen-2-ol] | ++ (50 ≤ x < 65) |
| COc1cc(C)cc(OC[C@@H]2[C@@]3(C)CCCC(C)(C)[C@@H]3CC[C@@]2(C)O)c1 [Compound No. 27, (1S,2R,4aS,8aS)-1-(3-methoxy-5-methylphenoxymethyl)-2,5,5,8a-tetramethyl-decahydronaphthalen-2-ol] | ++ (50 ≤ x < 65) |
| Cc1cc(O)cc(C(=O)[C@H]2[C@H](C)C(O)C[C@H]3C(C)(C)CCC[C@]23C)c1 (stereo partly drawn) [Compound No. 23, (3S,4S,4aS,8aS)-4-[(3-hydroxy-5-methylphenyl)carbonyl]-3,4a,8,8-tetramethyl-decahydronaphthalen-2-ol] | + (0 < x < 50) |
| C[C@H]1CC[C@H]2C(C)(C)CCC[C@]2(C)[C@H]1CCc1cc(O)cc(O)c1 [Compound No. 62, 5-{2-[(1S,2S,4aS,8aR)-2,5,5,8a-tetramethyl-decahydronaphthalen-1-yl]ethyl}benzene-1,3-diol] | +++ (x ≥65) |
| COc1cc(O)cc(NC(=O)C2=C(C)CC[C@H]3C(C)(C)CCC[C@]23C)c1 [Compound No. 42, (4aS,8aS)-N-(3-hydroxy-5-methoxyphenyl)-2,5,5,8a-tetramethyl-3,4,4a,5,6,7,8,8a-octahydronaphthalene-1-carboxamide] | + (0 < x < 50) |
| CC1=CC[C@H]2C(C)(C)CCC[C@]2(C)[C@H]1COc1cc(C)cc(O)c1 [Compound No. 29, 3-{[(1S,4aS,8aS)-2,5,5,8a-tetramethyl-1,4,4a,5,6,7,8,8a-octahydronaphthalen-1-yl]methoxy}-5-methylphenol] | +++ (x ≥65) |
| COc1cc(OC)cc(C(=O)[C@H]2[C@H](C)[C@H](N)C[C@H]3C(C)(C)CCC[C@]23C)c1 [Compound No. 55, (2R,3S,4S,4aS,8aS)-4-[(3,5-dimethoxyphenyl)carbonyl]-3,4a,8,8-tetramethyl-decahydronaphthalen-2-amine] | + (0 < x < 50) |
| Cc1cc(O)cc(C[C@H]2[C@@H](CO)CC[C@H]3C(C)(C)CCC[C@]23C)c1 [Compound No. 17, 3-{[(1S,2S,4aS,8aR)-2-(hydroxymethyl)-5,5,8a-trimethyl-decahydronaphthalen-1-yl]methyl}-5-methylphenol] | ++ (50 ≤ x < 65) |
| COc1cc(OC)cc(C(=O)C[C@@H]2[C@@]3(C)CCCC(C)(C)[C@@H]3CC[C@@]2(C)O)c1 [Compound No. 45, 2-[(1R,2R,4aS,8aS)-2-hydroxy-2,5,5,8a-tetramethyl-decahydronaphthalen-1-yl]-1-(3,5-dimethoxyphenyl)ethan-1-one] | ++ (50 ≤ x < 65) |
| COc1cc(OC)cc(C(=O)[C@H]2C(C)=CC[C@H]3C(C)(C)CCC[C@]23C)c1 [Compound No. 51, [(1S,4aS,8aS)-2,5,5,8a-tetramethyl-1,4,4a,5,6,7,8,8a-octahydronaphthalen-1-yl](3,5-dimethoxyphenyl)methanone] | ++ (50 ≤ x < 65) |

The next lines start with the values.

| Scoring, Approach 1 (% increase relative to background) | SMILES |
| --- | --- |
| ++ (50 ≤ x < 65) | CC1=CC[C@H]2C(C)(C)CCC[C@]2(C)C1C(=O)c1cc(C)cc(O)c1 (stereo partly drawn) [Compound No. 4, 3-{[(4aS,8aS)-2,5,5,8a-tetramethyl-1,4,4a,5,6,7,8,8a-octahydronaphthalen-1-yl]carbonyl}-5-methylphenol] |
| ++ (50 ≤ x < 65) | COc1cc(OC)cc(C(=O)[C@H]2[C@@H](C)C(=O)C[C@H]3C(C)(C)CCC[C@]23C)c1 [Compound No. 53, (3R,4S,4aS,8aS)-4-[(3,5-dimethoxyphenyl)carbonyl]-3,4a,8,8-tetramethyl-decahydronaphthalen-2-one] |
| +++ (x ≥65) | COc1cc(OC)cc(C(=O)[C@H]2[C@@H](C)[C@H](O)C[C@H]3C(C)(C)CCC[C@]23C)c1 [Compound No. 52, (2R,3R,4S,4aS,8aS)-4-[(3,5-dimethoxyphenyl)carbonyl]-3,4a,8,8-tetramethyl-decahydronaphthalen-2-ol] |
| +++ (x ≥65) | Cc1cc(O)cc(C(=O)[C@H]2[C@H](C)C(C(N)=O)C[C@H]3C(C)(C)CCC[C@]23C)c1 (stereo partly drawn) [Compound No. 65, (3S,4S,4aS,8aS)-4-[(3-hydroxy-5-methylphenyl)carbonyl]-3,4a,8,8-tetramethyl-decahydronaphthalene-2-carboxamide] |
| + (0 < x < 50) | COc1cc(C)cc(OC[C@H]2C(C)C(O)C[C@H]3C(C)(C)CCC[C@]23C)c1 (stereo partly drawn) [Compound No. 30, (4S,4aS,8aS)-4-(3-methoxy-5-methylphenoxymethyl)-3,4a,8,8-tetramethyl-decahydronaphthalen-2-ol] |
| +++ (x ≥65) | COc1cc(C)cc(C(=O)[C@H]2[C@H](C)C(NCCCN)C[C@H]3C(C)(C)CCC[C@]23C)c1.Cl.Cl (stereo partly drawn) [Compound No. 11, (3S,4S,4aS,8aS)-N-(3-aminopropyl)-4-[(3-methoxy-5-methylphenyl)carbonyl]-3,4a,8,8-tetramethyl-decahydronaphthalen-2-amine dihydrochloride] |
| + (0 < x < 50) | C[C@@H]1[C@H](N)C[C@H]2C(C)(C)CCC[C@]2(C)[C@H]1C(=O)c1cc(O)cc(O)c1 [Compound No. 56, 5-{[(1S,2S,3R,4aS,8aS)-3-amino-2,5,5,8a-tetramethyl-decahydronaphthalen-1-yl]carbonyl}benzene-1,3-diol] |
| ++ (50 ≤ x < 65) | COc1cc(O)cc(C(=O)C[C@H]2[C@@H](C)CC[C@H]3C(C)(C)CCC[C@]23C)c1 [Compound No. 47, 2-[(1S,2S,4aS,8aR)-2,5,5,8a-tetramethyl-decahydronaphthalen-1-yl]-1-(3-hydroxy-5-methoxyphenyl)ethan-1-one] |
